Results taken from patent US11273141B2, “Low-dose carbachol compositions and methods for treatment of night vision disturbance” (VYLUMA INC., priority 2020, dated 2022).
“Also recorded” adds a separate entry of the source.

Assays:
Dutch Belted Rabbits = test: Pupillary diameter (pupillometry) after single ocular administration, rabbit eye model; assay type: in vivo
Description: Study design: 3 Dutch Belted Rabbits (pigmented breed)/group received a single ocular administration of test articles (one drop per eye) at 3 concentrations (tested one week apart). After a 2-week rest period, combinations were tested. Ocular Irritation was assessed using a modified Draize test. Intraocular pressure (IOP) was measured at baseline, 1 h, 4 h, 6 h and 24 h. Pupillary Diameter was measured at baseline, 15 min, 1 h, 4 h and 6 h after dosing.
Due to the variation in pupillary diameter and IOP between rabbits and between eyes within rabbits, the data for pupillary diameter and IOP were normalized and presented with error bars (SD). A change of 15% to 20% approximates a pupillary diameter change of 1 mm. In human, a reduction of pupillary diameter of about 2 mm is clinically generally desired.

human individuals = test: Miotic response (dose response, eye color) to carbachol formulations in human; assay type: in vivo
Source text: FIG. 7 is a graph depicting exemplary results for a dose response in human using a carbachol formulation according to the inventive subject matter.
FIG. 8 is a graph depicting exemplary results for miotic response in human individuals of different eye color using a 0.29% carbachol formulation according to the inventive subject matter.
FIG. 9 is a graph depicting exemplary results for miotic response in human individuals of different eye color using a 0.50% carbachol formulation according to the inventive subject matter.
FIG. 10 is a graph depicting exemplary results for miotic response in human individuals of different eye color using a 0.75% carbachol formulation according to the inventive subject matter.
To optimize the concentration of carbachol in the topical ophthalmic formulations, the inventors tested various dosages, and the table below depicts the composition for the carbachol formulations used.
Exemplary results for the miotic effect of carbachol at 0.29%, 0.50%, and 0.75% are depicted in FIG. 7.

[1] = known side effects; cited from earlier work
pupillary muscle = test: Effect of benzalkonium chloride on the miotic effect of carbachol; assay type: in vivo; details: carbachol 0.025% to 0.075%
Source text: In still further experiments, the inventors investigated the effect of benzalkonium chloride on the miotic effect of carbachol. To that end, different concentrations of BAC were employed between 0.005% and 0.02% at carbachol concentrations between 0.025% and 0.075%, and the results are shown in FIGS. 6A-6C.

[2] = 0.5% and 1%, one drop per eye, rabbit

Brc1c(NC2=NCCN2)ccc2nccnc12 [Brimonidine]
effect on pupillary diameter (in words) (Dutch Belted Rabbits; doses tested, concentration not given, rabbit): little to no effect

C[N+](C)(C)CCOC(N)=O [Carbachol, carbamoylcholine]
duration of action (Dutch Belted Rabbits; carbachol doses tested, rabbit): 2 to 4 h
duration of miotic efficacy (human individuals; 0.5%, single dose): 3 h
saturation of dose response (human individuals; tested formulations): 0.5%

COc1ccc2c3c1O[C@H]1C[C@@H](O)C=C[C@@]31CCN(C)C2 [Galantamine]
duration of reduction in pupillary diameter (Dutch Belted Rabbits; 2% (high dose) alone, rabbit): at least 1 h
decrease in pupillary diameter (Dutch Belted Rabbits; 2% alone, rabbit): 1-2 mm

Cc1ccc(N(CC2=NCCN2)c2cccc(O)c2)cc1 [Phentolamine]
decrease in the pupil (Dutch Belted Rabbits; [2]): approximately 1 mm
duration of decrease in the pupil (Dutch Belted Rabbits; [2]): at least 6 h
duration of reduction in pupillary diameter (Dutch Belted Rabbits; all doses, FIG. 1, rabbit): at least 6 h
reduction in pupillary diameter (in words) (Dutch Belted Rabbits; all doses, FIG. 1, rabbit): a reduction in pupillary diameter occurred at all doses

CCN(C)C(=O)Oc1cccc([C@H](C)N(C)C)c1 [Rivastigmine]
decrease in pupillary diameter (Dutch Belted Rabbits; 1% alone, rabbit): 1 mm
effect on pupillary diameter (in words) (Dutch Belted Rabbits; 1% alone, rabbit): very low effects as compared to carbachol; also recorded: performed substantially similar to Phentolamine; also recorded: desirable effect

CC(=O)OC1CN2CCC1CC2 (stereo not shown) [aceclidine, 1-azabicyclo[2.2.2]octan-3-yl acetate]
side effects [1]: increased salivation and bradycardia

N-Alkyl-N-benzyl-N,N-dimethyl-ammonium chloride [BAC]
effect of BAC on miotic effect of carbachol (pupillary muscle; BAC 0.005%): minimal effect
effect of BAC on miotic effect of carbachol (pupillary muscle; BAC 0.01%): somewhat more pronounced
effect of BAC on miotic effect of carbachol (pupillary muscle; BAC at least 0.02%): significant
